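Five compound concentrations were applied to cells in 96-well plates for 48 hours; endpoints were derived by simple linear interpolation of the resulting dose-response curve. The concentration for 50% growth inhibition is given as GI50.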 Activity calls are given as the source filed them. No stated cut-off is given here; in the data, active = GI50 up to about 1.1 µM and inactive = higher.
Assays:
Assay in all cases: DTP human tumour cell line panel, 48 h
786-0 = tested on: 786-0
A498 = tested on: A498
A549 = tested on: A549
ACHN = tested on: ACHN
BT-549 = tested on: BT-549
CAKI-1 = tested on: CAKI-1
CCRF-CEM = tested on: CCRF-CEM
COLO 205 = tested on: COLO 205
DU-145 = tested on: DU-145
EKVX = tested on: EKVX
HCC 2998 = tested on: HCC 2998
HCT-116 = tested on: HCT-116
HCT-15 = tested on: HCT-15
HL-60 = tested on: HL-60
HOP-62 = tested on: HOP-62
HOP-92 = tested on: HOP-92
HT-29 = tested on: HT-29
Hs-578T = tested on: Hs-578T
IGROV-1 = tested on: IGROV-1
K562 = tested on: K562
KM12 = tested on: KM12
LOX IMVI = tested on: LOX IMVI
M14 = tested on: M14
MCF7 = tested on: MCF7
MDA-MB-231 = tested on: MDA-MB-231
MDA-MB-435 = tested on: MDA-MB-435
MDA-N = tested on: MDA-N
MOLT-4 = tested on: MOLT-4
Malme-3M = tested on: Malme-3M
NCI-H226 = tested on: NCI-H226
NCI-H23 = tested on: NCI-H23
NCI-H460 = tested on: NCI-H460
NCI-H522 = tested on: NCI-H522
NCI/ADR-RES = tested on: NCI/ADR-RES
OVCAR-3 = tested on: OVCAR-3
OVCAR-4 = tested on: OVCAR-4
OVCAR-5 = tested on: OVCAR-5
OVCAR-8 = tested on: OVCAR-8
PC-3 = tested on: PC-3
RPMI-8226 = tested on: RPMI-8226
RXF 393 = tested on: RXF 393
SF-268 = tested on: SF-268
SF-295 = tested on: SF-295
SF-539 = tested on: SF-539
SK-MEL-28 = tested on: SK-MEL-28
SK-MEL-2 = tested on: SK-MEL-2
SK-MEL-5 = tested on: SK-MEL-5
SK-OV-3 = tested on: SK-OV-3
SN12C = tested on: SN12C
SNB-19 = tested on: SNB-19
SNB-75 = tested on: SNB-75
SW-620 = tested on: SW-620
T47D = tested on: T47D
TK-10 = tested on: TK-10
U-251 = tested on: U-251
UACC-257 = tested on: UACC-257
UACC-62 = tested on: UACC-62
UO-31 = tested on: UO-31

Structure (SMILES): CC(=O)[C@]1(O)Cc2c(O)c3c(c(O)c2C(OC2OC(C)C(O)C(O)C2F)C1)C(=O)c1ccccc1C3=O (stereo partly specified)
- GI50 (786-0): 0.0288 µM (active)
- GI50 (A498): 0.0581 µM (active)
- GI50 (A549): 0.019 µM (active)
- GI50 (ACHN): 0.0107 µM (active)
- GI50 (BT-549): 0.358 µM (active)
- GI50 (CAKI-1): 0.013 µM (active)
- GI50 (CCRF-CEM): < 0.0141 µM (active)
- GI50 (COLO 205): 0.259 µM (active)
- GI50 (DU-145): 0.0502 µM (active)
- GI50 (EKVX): 0.61 µM (active)
- GI50 (HCC 2998): 0.208 µM (active)
- GI50 (HCT-116): 0.0565 µM (active)
- GI50 (HCT-15): 0.0516 µM
- GI50 (HL-60): < 0.01 µM (active)
- GI50 (HOP-62): < 0.0189 µM (active)
- GI50 (HOP-92): 0.055 µM (active)
- GI50 (HT-29): 0.109 µM (active)
- GI50 (Hs-578T): 0.33 µM (active)
- GI50 (IGROV-1): 0.0419 µM (active)
- GI50 (K562): 0.083 µM (active)
- GI50 (KM12): 0.158 µM (active)
- GI50 (LOX IMVI): 0.0713 µM (active)
- GI50 (M14): 0.0951 µM (active)
- GI50 (MCF7): < 0.01 µM (active)
- GI50 (MDA-MB-231): 0.115 µM (active)
- GI50 (MDA-MB-435): 0.371 µM (active)
- GI50 (MDA-N): 0.475 µM (active)
- GI50 (MOLT-4): < 0.01 µM (active)
- GI50 (Malme-3M): 0.208 µM (active)
- GI50 (NCI-H226): 0.0265 µM (active)
- GI50 (NCI-H23): 0.0371 µM (active)
- GI50 (NCI-H460): < 0.01 µM (active)
- GI50 (NCI-H522): 0.316 µM (active)
- GI50 (NCI/ADR-RES): 0.318 µM (active)
- GI50 (OVCAR-3): 0.568 µM (active)
- GI50 (OVCAR-4): 0.914 µM (active)
- GI50 (OVCAR-5): 0.125 µM (active)
- GI50 (OVCAR-8): 0.0238 µM (active)
- GI50 (PC-3): 0.316 µM (active)
- GI50 (RPMI-8226): < 0.0299 µM (active)
- GI50 (RXF 393): 0.624 µM (active)
- GI50 (SF-268): 0.084 µM (active)
- GI50 (SF-295): < 0.014 µM (active)
- GI50 (SF-539): < 0.0402 µM (active)
- GI50 (SK-MEL-28): 0.547 µM (active)
- GI50 (SK-MEL-2): 0.828 µM (active)
- GI50 (SK-MEL-5): 0.0516 µM (active)
- GI50 (SK-OV-3): 0.135 µM (active)
- GI50 (SN12C): 0.0247 µM (active)
- GI50 (SNB-19): < 0.0199 µM (active)
- GI50 (SNB-75): 0.0664 µM (active)
- GI50 (SW-620): 0.0796 µM (active)
- GI50 (T47D): 0.0395 µM (active)
- GI50 (TK-10): 0.197 µM (active)
- GI50 (U-251): < 0.0159 µM (active)
- GI50 (UACC-257): 0.225 µM (active)
- GI50 (UACC-62): 0.0791 µM (active)
- GI50 (UO-31): < 0.01 µM (active)

Structure (SMILES): C[C@]12CC[C@@H]3c4cc(Br)c(O)c(Br)c4CC[C@H]3[C@@H]1CC(Br)C2=O (stereo partly specified)
- GI50 (786-0): 4.24 µM (inactive)
- GI50 (A498): 23.3 µM (inactive)
- GI50 (A549): 17.4 µM (inactive)
- GI50 (ACHN): 6.37 µM (inactive)
- GI50 (BT-549): 5 µM (inactive)
- GI50 (CAKI-1): 3.7 µM (inactive)
- GI50 (CCRF-CEM): 1.71 µM (inactive)
- GI50 (COLO 205): 7.87 µM (inactive)
- GI50 (DU-145): 23.4 µM (inactive)
- GI50 (EKVX): 13.2 µM (inactive)
- GI50 (HCC 2998): 1.99 µM (inactive)
- GI50 (HCT-116): 3.66 µM (inactive)
- GI50 (HCT-15): 2.65 µM
- GI50 (HL-60): 2.59 µM (inactive)
- GI50 (HOP-92): 20.7 µM (inactive)
- GI50 (HT-29): 3.26 µM (inactive)
- GI50 (Hs-578T): 5.86 µM (inactive)
- GI50 (IGROV-1): 9.23 µM (inactive)
- GI50 (K562): 2.29 µM (inactive)
- GI50 (KM12): 3.57 µM (inactive)
- GI50 (LOX IMVI): 3.57 µM (inactive)
- GI50 (M14): 7.03 µM (inactive)
- GI50 (MCF7): 5.61 µM (inactive)
- GI50 (MDA-MB-231): 6.62 µM (inactive)
- GI50 (MDA-MB-435): 4.13 µM (inactive)
- GI50 (MDA-N): 5.79 µM (inactive)
- GI50 (MOLT-4): 2.53 µM (inactive)
- GI50 (Malme-3M): 15.2 µM (inactive)
- GI50 (NCI-H226): 6.5 µM (inactive)
- GI50 (NCI-H460): 5.82 µM (inactive)
- GI50 (NCI/ADR-RES): 4.63 µM (inactive)
- GI50 (OVCAR-3): 2.58 µM (inactive)
- GI50 (OVCAR-4): 5.97 µM (inactive)
- GI50 (OVCAR-5): 22.1 µM (inactive)
- GI50 (OVCAR-8): 2.54 µM (inactive)
- GI50 (PC-3): 8.61 µM (inactive)
- GI50 (RXF 393): 2.51 µM (inactive)
- GI50 (SF-268): 5.68 µM (inactive)
- GI50 (SF-295): 16.6 µM (inactive)
- GI50 (SF-539): 7.52 µM (inactive)
- GI50 (SK-MEL-28): 7.28 µM (inactive)
- GI50 (SK-MEL-2): 12.2 µM (inactive)
- GI50 (SK-OV-3): 14.6 µM (inactive)
- GI50 (SN12C): 4.53 µM (inactive)
- GI50 (SNB-75): 12.1 µM (inactive)
- GI50 (SW-620): 3.36 µM (inactive)
- GI50 (T47D): 4.65 µM (inactive)
- GI50 (TK-10): 14.2 µM (inactive)
- GI50 (U-251): 3.3 µM (inactive)
- GI50 (UACC-257): 15.8 µM (inactive)
- GI50 (UACC-62): 3.59 µM (inactive)
- GI50 (UO-31): 1.23 µM (inactive)

Structure (SMILES): O=C(/C=C1\N=C(c2ccccc2)N(c2nc3c(Cl)cc(Cl)cc3s2)C1=O)/C=C/c1ccccc1
- GI50 (786-0): > 100 µM (inactive)
- GI50 (A498): 67.5 µM (inactive)
- GI50 (A549): > 100 µM (inactive)
- GI50 (ACHN): > 100 µM (inactive)
- GI50 (BT-549): > 100 µM (inactive)
- GI50 (CAKI-1): > 100 µM (inactive)
- GI50 (CCRF-CEM): 46.7 µM (inactive)
- GI50 (COLO 205): 47.6 µM (inactive)
- GI50 (DU-145): > 100 µM (inactive)
- GI50 (EKVX): > 100 µM (inactive)
- GI50 (HCC 2998): > 100 µM (inactive)
- GI50 (HCT-116): 97.5 µM (inactive)
- GI50 (HCT-15): 73.1 µM
- GI50 (HL-60): 91 µM (inactive)
- GI50 (HOP-62): > 100 µM (inactive)
- GI50 (HOP-92): > 100 µM (inactive)
- GI50 (HT-29): > 100 µM (inactive)
- GI50 (Hs-578T): > 100 µM (inactive)
- GI50 (IGROV-1): > 100 µM (inactive)
- GI50 (K562): 35 µM (inactive)
- GI50 (KM12): > 100 µM (inactive)
- GI50 (LOX IMVI): > 100 µM (inactive)
- GI50 (M14): > 100 µM (inactive)
- GI50 (MCF7): 63 µM (inactive)
- GI50 (MDA-MB-231): > 100 µM (inactive)
- GI50 (MDA-MB-435): 54.3 µM (inactive)
- GI50 (MDA-N): 45.8 µM (inactive)
- GI50 (MOLT-4): 52.1 µM (inactive)
- GI50 (Malme-3M): > 100 µM (inactive)
- GI50 (NCI-H23): > 100 µM (inactive)
- GI50 (NCI-H460): > 100 µM (inactive)
- GI50 (NCI-H522): 45.1 µM (inactive)
- GI50 (NCI/ADR-RES): 83.4 µM (inactive)
- GI50 (OVCAR-3): 75.3 µM (inactive)
- GI50 (OVCAR-4): > 100 µM (inactive)
- GI50 (OVCAR-5): > 100 µM (inactive)
- GI50 (OVCAR-8): > 100 µM (inactive)
- GI50 (PC-3): 69.3 µM (inactive)
- GI50 (RPMI-8226): 63 µM (inactive)
- GI50 (RXF 393): 63.1 µM (inactive)
- GI50 (SF-268): > 100 µM (inactive)
- GI50 (SF-295): > 100 µM (inactive)
- GI50 (SK-MEL-28): > 100 µM (inactive)
- GI50 (SK-MEL-2): > 100 µM (inactive)
- GI50 (SK-MEL-5): 56.4 µM (inactive)
- GI50 (SK-OV-3): > 100 µM (inactive)
- GI50 (SN12C): > 100 µM (inactive)
- GI50 (SNB-19): > 100 µM (inactive)
- GI50 (SNB-75): 36.5 µM (inactive)
- GI50 (SW-620): 72.3 µM (inactive)
- GI50 (T47D): 24.9 µM (inactive)
- GI50 (TK-10): > 100 µM (inactive)
- GI50 (U-251): > 100 µM (inactive)
- GI50 (UACC-257): > 100 µM (inactive)
- GI50 (UACC-62): 54.7 µM (inactive)
- GI50 (UO-31): > 100 µM (inactive)

Reference: ChEMBL document CHEMBL1201862, “PubChem BioAssay data set” (2004)
